This note sets out measurements from patent US7932262B2 (Novartis AG, priority 2006, dated 2011).

A value given as a limit tells only on which side of the number the result lay.

The target of one test is T1, PDK1 kinase (Homo sapiens, UniProt O15530).
T1 sequence (O15530 1-556): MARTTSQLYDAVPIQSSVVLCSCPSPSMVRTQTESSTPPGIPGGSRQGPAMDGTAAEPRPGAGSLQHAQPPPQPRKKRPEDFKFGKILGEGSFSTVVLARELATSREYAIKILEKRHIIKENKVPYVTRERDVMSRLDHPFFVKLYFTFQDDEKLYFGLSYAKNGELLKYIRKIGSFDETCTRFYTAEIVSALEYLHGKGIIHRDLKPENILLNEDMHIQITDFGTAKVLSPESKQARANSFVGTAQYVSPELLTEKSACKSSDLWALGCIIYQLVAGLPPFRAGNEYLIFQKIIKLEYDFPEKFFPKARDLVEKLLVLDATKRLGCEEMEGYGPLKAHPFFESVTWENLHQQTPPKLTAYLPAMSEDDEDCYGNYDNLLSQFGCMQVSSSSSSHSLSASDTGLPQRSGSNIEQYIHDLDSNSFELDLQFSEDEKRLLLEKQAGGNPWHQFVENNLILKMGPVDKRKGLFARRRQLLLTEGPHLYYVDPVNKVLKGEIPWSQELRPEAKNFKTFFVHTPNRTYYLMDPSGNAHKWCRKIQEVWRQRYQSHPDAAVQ
The experiment in a line: PDK1 Kinase Alpha Screen Assay. The format is biochemical. The following applies: read-out: PDK1 IC50. An outline of the steps: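 Test compounds were incubated with PDK1 kinase, 10 uM ATP and 50 nM biotinylated peptide substrate for 3-18 hours at pH 7.5 with 2.5% DMSO. Peptide phosphorylation was then detected by AlphaScreen proximity luminescence using a phospho-(Ser/Thr) PKA substrate antibody.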

In a further test the test system is A2780 cells. The experiment in a line: Cell Proliferation Assay (Cell Titer Glo), A2780. The format is cell-based. The following applies: Homo sapiens, 72 h; A2780 cells, 3 days incubation; read-out: CPEC50 A2780. Summed up:
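Cells seeded at 1000/well, allowed to adhere 3-5 h, then exposed to DMSO-dissolved compounds for 3 days at 37° C., 5% CO2. Medium replaced before Cell Titer Glo addition; luminescence read after 10 min.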

Regarding `CC(=O)NCCNc1cc(-c2cccc3cnc(Nc4ccc(S(N)(=O)=O)cc4)nc23)ccn1` [Compound 101, N-(2-{4-[2-(4-Sulfamoyl-phenylamino)-quinazolin-8-yl]-pyridin-2-ylamino}-ethyl)-acetamide], the IC50 on PDK1 kinase is under 5 µM. In addition, the EC50 in the test with A2780 cells is under 5 µM.
Turning to `NS(=O)(=O)c1ccc(Nc2ncc3cccc(-c4ccnc(NCCN5CCCC5)c4)c3n2)cc1` [Compound 102, 4-{8-[2-(2-Pyrrolidin-1-yl-ethylamino)-pyridin-4-yl]-quinazolin-2-ylamino}-benzenesulfonamide], the IC50 at PDK1 kinase was under 5 µM. In the test with A2780 cells, the EC50 is under 5 µM.
With `NS(=O)(=O)c1ccc(Nc2ncc3cccc(-c4cnoc4)c3n2)cc1` [Compound 103, 4-(8-Isoxazol-4-yl-quinazolin-2-ylamino)-benzenesulfonamide], the IC50 on PDK1 kinase was under 5 µM. Besides, the EC50 in the test on A2780 cells is under 5 µM.
Regarding `NS(=O)(=O)c1ccc(Nc2ncc3cccc(-c4cn[nH]c4)c3n2)cc1` [Compound 104, 4-[8-(1H-Pyrazol-4-yl)-quinazolin-2-ylamino]-benzenesulfonamide], the IC50 on PDK1 kinase is under 5 µM. Also, in the test on A2780 cells, the EC50 is under 5 µM.
Turning to `NS(=O)(=O)c1ccc(Nc2ncc3cccc(-c4ccnc(N5CCOCC5)c4)c3n2)cc1` [Compound 105, 4-[8-(2-Morpholin-4-yl-pyridin-4-yl)-quinazolin-2-ylamino]-benzenesulfonamide], the IC50 on PDK1 kinase was under 5 µM. Also, the EC50 with A2780 cells fell in the range of 5 to 10 µM.
On the same counts, the results for `CN1CCN(c2cc(-c3cccc4cnc(Nc5ccc(S(N)(=O)=O)cc5)nc34)ccn2)CC1` [Compound 106, 4-{8-[2-(4-Methyl-piperazin-1-yl)-pyridin-4-yl]-quinazolin-2-ylamino}-benzenesulfonamide] are under 5 µM and under 5 µM.
On the same counts, the results for `NS(=O)(=O)c1ccc(Nc2ncc3cccc(-c4ccnc(N5CCS(=O)(=O)CC5)c4)c3n2)cc1` [Compound 107, 4-{8-[2-(1,1-Dioxo-1 lambda*6*-thiomorpholin-4-yl)-pyridin-4-yl]-quinazolin-2-ylamino}-benzenesulfonamide] are under 5 µM and under 5 µM.
On the same counts, the results for `NS(=O)(=O)c1ccc(Nc2ncc3cccc(-c4ccnc(N5CCNC(=O)C5)c4)c3n2)cc1` [Compound 108, 4-{8-[2-(3-Oxo-piperazin-1-yl)-pyridin-4-yl]-quinazolin-2-ylamino}-benzenesulfonamide] are under 5 µM and under 5 µM.
Consider `Nc1cc(-c2cccc3cnc(Nc4ccc(S(N)(=O)=O)cc4)nc23)ccn1` [Compound 109, 4-[8-(2-Amino-pyridin-4-yl)-quinazolin-2-ylamino]-benzenesulfonamide], for which the IC50 on PDK1 kinase is under 5 µM. Further, the EC50 with A2780 cells lay within 5 to 10 µM.
For `NS(=O)(=O)c1ccc(Nc2ncc3cccc(-c4ccccc4)c3n2)cc1` [Compound 110, 4-(8-Phenyl-quinazolin-2-ylamino)-benzenesulfonamide], the IC50 at PDK1 kinase was under 5 µM. Also, the EC50 in the test on A2780 cells was under 5 µM.
In the case of `NC(=O)c1ccc(-c2ccc3cnc(Nc4ccc(S(N)(=O)=O)cc4)nc3c2)cc1F` [Compound 112, 2-Fluoro-4-[2-(4-sulfamoyl-phenylamino)-quinazolin-7-yl]-benzamide], the IC50 on PDK1 kinase is under 5 µM. The EC50 in the test with A2780 cells was in the range of 5 to 10 µM.
On the same counts, the results for `NS(=O)(=O)c1ccc(Nc2ncc3cccc(C(=O)N4CCCC4)c3n2)cc1` [Compound 113, 4-[8-(Pyrrolidine-1-carbonyl)-quinazolin-2 ylamino]-benzenesulfonamide] are under 5 µM and 5 to 10 µM.
On the same counts, the results for `COCCNC(=O)c1cccc2cnc(Nc3ccc(S(N)(=O)=O)cc3)nc12` [Compound 114, 2-(4-Sulfamoyl-phenylamino)-quinazoline-8-carboxylic acid (2-methoxy-ethyl)-amide] are 5 to 10 µM and under 5 µM.
On the same counts, the results for `NS(=O)(=O)c1ccc(Nc2ncc3cccc(C(=O)NCCN4CCCC4)c3n2)cc1` [Compound 115, 2-(4-Sulfamoyl-phenylamino)-quinazoline-8-carboxylic acid (2-pyrrolidin-1-yl-ethyl)-amide] are 5 to 10 µM and under 5 µM.
For the molecule `COCCN1CCN(C(=O)c2ccc3cnc(Nc4ccc(S(N)(=O)=O)cc4)nc3c2)CC1` [Compound 116, 4-{7-[4-(2-Methoxy-ethyl)-piperazine-1-carbonyl]-quinazolin-2-ylamino}-benzenesulfonamide], the IC50 on PDK1 kinase was 10 to 25 µM. For the same molecule, in the test on A2780 cells, the EC50 fell in the range of 5 to 10 µM.
On the same counts, the results for `COc1cc(-c2cccc3cnc(Nc4ccc(S(N)(=O)=O)cc4)nc23)c(Cl)cn1` [Compound 117, 4-[8-(5-Chloro-2-methoxy-pyridin-4-yl)-quinazolin-2-ylamino]-benzenesulfonamide] are under 5 µM and under 5 µM.
On the same counts, the results for `CC(C)N1CCN(C(=O)c2ccc3cnc(Nc4ccc(S(N)(=O)=O)cc4)nc3c2)CC1` [Compound 118, 4-[7-(4-Isopropyl-piperazine-1-carbonyl)-quinazolin-2-ylamino]-benzenesulfonamide] are 10 to 25 µM and 5 to 10 µM.
On the same counts, the results for `CN1CCC(NC(=O)c2ccc3cnc(Nc4ccc(S(N)(=O)=O)cc4)nc3c2)CC1` [Compound 119, 2-(4-Sulfamoyl-phenylamino)-quinazoline-7-carboxylic acid (1-methyl-piperidin-4-yl)-amide] are under 5 µM and 5 to 10 µM.
With `NS(=O)(=O)c1ccc(Nc2ncc3cccc(C(=O)N4CCOCC4)c3n2)cc1` [Compound 120, 4-[8-(Morpholine-4-carbonyl)-quinazolin-2-ylamino]-benzenesulfonamide], the IC50 at PDK1 kinase fell in the range of 5 to 10 µM. Also, the EC50 with A2780 cells lay within 5 to 10 µM.
Consider `CN1CCN(C(=O)c2cccc3cnc(Nc4ccc(S(N)(=O)=O)cc4)nc23)CC1` [Compound 121, 4-[8-(4-Methyl-piperazine-1-carbonyl)-quinazolin-2-ylamino]-benzenesulfonamide], for which, on PDK1 kinase, the 50% inhibitory concentration (IC50) was under 5 µM. Further, the EC50 with A2780 cells was in the range of 5 to 10 µM.
On the same counts, the results for `NS(=O)(=O)c1ccc(Nc2ncc3cccc(C(=O)N4CCS(=O)(=O)CC4)c3n2)cc1` [Compound 122, 4-[8-(1,1-Dioxo-1lambda*6*- thiomorpholine-4-carbonyl)-quinazolin-2-ylamino]-benzenesulfonamide] are 10 to 25 µM and 5 to 10 µM.
On the same counts, the results for `NC(=O)c1cccc(-c2ccc3cnc(Nc4ccc(S(N)(=O)=O)cc4)nc3c2)c1` [Compound 123, 3-[2-(4-Sulfamoyl-phenylamino)-quinazolin-7-yl]-benzamide] are under 5 µM and 5 to 10 µM.
Regarding `NC(=O)c1ccc(-c2ccc3cnc(Nc4ccc(S(N)(=O)=O)cc4)nc3c2)cc1` [Compound 124, 4-[2-(4-Sulfamoyl-phenylamino)-quinazolin-7-yl]-benzamide], the IC50 at PDK1 kinase is under 5 µM. Further, in the test with A2780 cells, the EC50 lay within 5 to 10 µM.
On the same counts, the results for `Nc1ccc(-c2ccc3cnc(Nc4ccc(S(N)(=O)=O)cc4)nc3c2)cn1` [Compound 130, 4-[7-(6-Amino-pyridin-3-yl)-quinazolin-2-ylamino]-benzenesulfonamide] are under 5 µM and under 5 µM.

By IC50 is commonly meant the midpoint of a concentration-inhibition curve.
